Key:
[1] = tested on: psychomotor seizures induced via corneal stimulation (6 Hz) in female NMRI mice; experiment: 6 Hz electroshock seizure model (anticonvulsant properties); format: in vivo; settings: Mus musculus, po, 32 mA, 3 s corneal stimulation, p.o., pretreatment time 60 mins, vehicle 5% cremaphor, read-out: ED50 (dose that would give a 50% protection from seizures)
From the text: The animal models being used for the discovery of novel antiepileptic drugs are numerous. Among these, a low frequency (6 Hz) electroshock seizure model has recently come into the limelight as a potential model of pharmacoresistant epilepsy (see Epilepsy: a comprehensive textbook, pag. 1477, by By Jerome Engel, Timothy A. Pedley, Jean Aicardi, Marc A Dichter, Solomon Moshé—2007—Medical), and it is therefore an animal model of primary interest in antiepileptic drug discovery. The compounds of the invention have shown remarkable activity to protect against 6 Hz seizures.
The evaluation of the anticonvulsant properties was carried out in female NMRI mice (20-25 g, Taconic, Denmark). The mice were housed in groups (8 per cage according to weight) with food and water available ad libitum The environment was temperature (20±2° C.) and humidity (55±15%) controlled, and consisted of a 12:12 h light-dark cycle (lights on 06:00 h). The experiments were performed according to the Danish Committee for Experiments on Animals. […]
For screening purposes, the test compound was tested at 1 dose at 1 time-point. In the case of protection of 3 or more out of 8 mice, the compound were further evaluated in dose response (N=8/group). […]

Row | melting point [°C] | SMILES | ED50 [1] [mg/kg]
1 | 178.3 to 180.8 | Brc1ccc2c(c1)nnn2Cc1c[nH]cn1 | –
2 | 137.8 to 138.9 | c1ccc2c(c1)nnn2Cc1c[nH]cn1 | –
3 | 166 to 167.5 | Fc1cc(F)c2nnn(Cc3ncc[nH]3)c2c1 | –
4 | – | CCC(C(N)=O)n1nnc2ccccc21 (racemic) [Compound 1, 2-Benzotriazol-1-yl-butyramide] | 38
5 | 181.2 to 182.1 | CCC(C(N)=O)n1nnc2ccc(Br)cc21 (stereo not drawn) [Compound 3, 2-(6-Bromo-benzotriazol-1-yl)-butyramide] | –
6 | 241.8 to 242.7 | CS(=O)(=O)c1ccc2nnn(CC(N)=O)c2c1 [Compound 5, 2-(6-Methanesulfonyl-benzotriazol-1-yl)-acetamide] | –
7 | 155 to 156.3 | CCC(C(N)=O)n1nnc2cc(F)cc(F)c21 (stereo not drawn) [Compound 6, 2-(5,7-Difluoro-benzotriazol-1-yl)-butyramide] | –
8 | 199 to 200.5 | CCC(C(N)=O)n1nnc2c(F)cc(F)cc21 (stereo not drawn) [Compound 7, 2-(4,6-Difluoro-benzotriazol-1-yl)-butyramide] | –
9 | 236.5 to 238 | NC(=O)Cn1nnc2cc(F)cc(F)c21 [Compound 8, 2-(5,7-Difluoro-benzotriazol-1-yl)-acetamide] | –
10 | 247.8 to 248.9 | NC(=O)Cn1nnc2c(F)cc(F)cc21 [Compound 9, 2-(4,6-Difluoro-benzotriazol-1-yl)-acetamide] | –
11 | 156.8 to 158 | CC(C(N)=O)n1nnc2ccc(F)cc21 (stereo not drawn) [Compound 10, 2-(6-Fluoro-benzotriazol-1-yl)-propionamide] | –
12 | 138.6 to 140.1 | CC(C(N)=O)n1nnc2cc(F)ccc21 (stereo not drawn) [Compound 11, 2-(5-Fluoro-benzotriazol-1-yl)-propionamide] | –
13 | – | CC[C@@H](C(N)=O)n1nnc2cc(Br)ccc21 [Compound 12, (2S)-2-(5-Bromobenzotriazol-1-yl)butanamide] | 38
14 | 221.5 to 222.5 | NC(=O)Cn1nnc2cc(Br)ccc21 [Compound 13, 2-(5-Bromo-benzotriazol-1-yl)-acetamide] | –
15 | 153 to 154.5 | CC[C@@H](C(N)=O)n1nnc2c(Cl)cccc21 [Compound 15, (2S)-2-(4-Chlorobenzotriazol-1-yl)butanamide] | –
16 | 164 to 165.7 | CC(C)[C@@H](C(N)=O)n1nnc2ccccc21 [Compound 16, (2S)-2-(Benzotriazol-1-yl)-3-methyl-butanamide] | –
17 | 177.5 to 178.8 | CC(C)CC(C(N)=O)n1nnc2ccccc21 (stereo not drawn) [Compound 17, 2-(Benzotriazol-1-yl)-4-methyl-pentanamide] | –
18 | 175.5 to 177.5 | CC[C@@H](C(N)=O)n1nnc2cc(Cl)ccc21 [Compound 18, (2S)-2-(5-Chlorobenzotriazol-1-yl)butanamide] | –
19 | 206.2 to 207.3 | CC[C@H](C(N)=O)n1nnc2cc(Br)ccc21 [Compound 21, (2R)-2-(5-Bromobenzotriazol-1-yl)butanamide] | –
20 | 162.5 to 163.7 | CC[C@H](C(N)=O)n1nnc2c(F)cccc21 [Compound 23, (2R)-2-(4-Fluorobenzotriazol-1-yl)butanamide] | –
21 | 163.9 to 165.1 | CC[C@@H](C(N)=O)n1nnc2c(F)cccc21 [Compound 24, (2S)-2-(4-Fluorobenzotriazol-1-yl)butanamide] | –

From patent US20110275684A1, “NOVEL BENZOTRIAZOLE DERIVATIVES USEFUL FOR THE TREATMENT OF CNS DISORDERS” (NEUROSEARCH A/S, priority 2009, published 2011)
